Test results taken from patent US9233061B2 (AMOREPACIFIC CORPORATION, priority 2011, dated 2016).

Assay: Precipitation of caffeine at low temperature (4° C.)
Format: physicochemical
Settings: 3 days in a refrigerator (4° C.)

## NC(=O)c1cccnc1 [niacinamide, Niacinamide]
Caffeine content 1-3%
  Amount of niacinamide necessary for inhibiting precipitation: 0.5-1 time based on caffeine
Caffeine content 3-5%
  Amount of niacinamide necessary for inhibiting precipitation: 1-1.5 times based on caffeine
Caffeine content 5-10%
  Amount of niacinamide necessary for inhibiting precipitation: 1-2 times based on caffeine
